Results from patent US20230348444A1, “NOVEL COMPOUNDS FOR USE IN THE TREATMENT OF DISEASES ASSOCIATED WITH ANGIOTENSIN II” (Vicore Pharma AB, priority 2020, published 2023).

Tests used:
CYP1A = target: T1, CYP1A (Homo sapiens, UniProt P05177); assay: CYP inhibition in human liver microsomes (Eurofins protocol ITEMG232); format: in vitro ADME; settings: substrate phenacetin; for CYP1A Inh %: 10 μM; for inhibition at 10 µM: probe phenacetin, read-out: CYP1A Inh %
T1 construct: using isoform-specific substrates incubated with human liver microsomes; tissue Eurofins ITEMG232; host or cells: human liver microsomes
T1 sequence (P05177 2-516 limits assumed): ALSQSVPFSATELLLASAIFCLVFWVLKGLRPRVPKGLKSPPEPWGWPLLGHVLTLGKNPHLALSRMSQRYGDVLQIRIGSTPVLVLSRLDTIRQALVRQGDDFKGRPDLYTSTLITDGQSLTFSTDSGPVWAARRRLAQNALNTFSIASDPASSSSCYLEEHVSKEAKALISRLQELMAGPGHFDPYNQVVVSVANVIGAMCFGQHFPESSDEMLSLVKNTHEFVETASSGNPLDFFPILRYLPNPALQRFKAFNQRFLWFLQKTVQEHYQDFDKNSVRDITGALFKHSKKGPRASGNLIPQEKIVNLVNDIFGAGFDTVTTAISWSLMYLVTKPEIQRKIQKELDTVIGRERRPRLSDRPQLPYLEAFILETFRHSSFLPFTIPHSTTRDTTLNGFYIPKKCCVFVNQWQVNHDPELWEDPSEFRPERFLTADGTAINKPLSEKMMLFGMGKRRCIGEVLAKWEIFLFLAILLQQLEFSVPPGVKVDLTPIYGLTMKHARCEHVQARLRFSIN
Procedure: (§1) The following substrates were used; CYP1A phenacetin, CYP2B6 bupropion, CYP2C8 paclitaxel and amodiaquine, CYP2C9 diclofenac, CYP2C19 omeprazole, CYP2D6 dextromethorphan, CYP3A midazolam and testosterone.
(§2) At the end of the incubation, the formation of metabolite was monitored by HPLC-MS/MS as the peak area response.

CYP2B6 = target: T2, CYP2B6 (Homo sapiens, UniProt P20813); assay: as above; format: in vitro ADME; settings: substrate bupropion; for CYP2B6 Inh %: 10 μM; for inhibition at 10 µM: probe bupropion, read-out: CYP2B6 Inh %
T2 construct: using isoform-specific substrates incubated with human liver microsomes; tissue Eurofins ITEMG232; host or cells: human liver microsomes
T2 sequence (P20813 1-491): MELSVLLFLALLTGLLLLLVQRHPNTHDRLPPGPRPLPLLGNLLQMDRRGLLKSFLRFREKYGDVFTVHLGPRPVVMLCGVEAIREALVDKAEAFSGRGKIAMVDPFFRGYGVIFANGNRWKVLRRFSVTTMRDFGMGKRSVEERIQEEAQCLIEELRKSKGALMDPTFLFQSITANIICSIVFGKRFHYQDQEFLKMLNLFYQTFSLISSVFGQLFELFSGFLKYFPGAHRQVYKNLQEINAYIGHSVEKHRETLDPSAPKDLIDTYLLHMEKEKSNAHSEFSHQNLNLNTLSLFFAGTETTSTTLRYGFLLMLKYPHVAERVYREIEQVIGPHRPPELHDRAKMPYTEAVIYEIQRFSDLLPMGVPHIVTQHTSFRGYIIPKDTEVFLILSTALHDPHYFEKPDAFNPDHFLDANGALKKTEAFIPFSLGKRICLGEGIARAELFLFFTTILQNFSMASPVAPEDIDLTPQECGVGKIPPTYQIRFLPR
Procedure: as §1, §2

CYP2C19 = target: T3, CYP2C19 (Homo sapiens, UniProt P33261); assay: as above; format: in vitro ADME; settings: substrate omeprazole; for CYP2C19 Inh %: 10 μM; for inhibition at 10 µM: probe omeprazole, read-out: CYP2C19 Inh %
T3 construct: using isoform-specific substrates incubated with human liver microsomes; tissue Eurofins ITEMG232; host or cells: human liver microsomes
T3 sequence (P33261 whole entry, canonical isoform): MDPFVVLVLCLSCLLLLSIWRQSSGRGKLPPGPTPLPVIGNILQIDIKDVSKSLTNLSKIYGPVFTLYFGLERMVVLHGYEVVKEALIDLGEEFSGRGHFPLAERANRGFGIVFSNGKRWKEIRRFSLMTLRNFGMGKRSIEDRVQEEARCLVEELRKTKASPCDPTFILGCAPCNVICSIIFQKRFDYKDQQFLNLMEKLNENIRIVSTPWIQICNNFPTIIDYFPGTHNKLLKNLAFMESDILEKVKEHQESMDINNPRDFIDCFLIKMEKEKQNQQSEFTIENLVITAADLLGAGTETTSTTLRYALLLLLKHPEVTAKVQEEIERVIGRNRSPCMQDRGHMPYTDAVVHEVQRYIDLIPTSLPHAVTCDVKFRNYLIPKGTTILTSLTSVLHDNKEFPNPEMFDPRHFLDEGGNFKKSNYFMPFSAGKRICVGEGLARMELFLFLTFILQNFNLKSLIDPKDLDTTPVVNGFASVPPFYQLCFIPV
Procedure: as §1, §2

CYP2C8 = target: T4, CYP2C8 (Homo sapiens, UniProt P10632); assay: as above; format: in vitro ADME; settings: substrates paclitaxel and amodiaquine; for CYP2C8 Inh %: 10 μM; for inhibition at 10 µM: probe paclitaxel and amodiaquine, read-out: CYP2C8 Inh %
T4 construct: using isoform-specific substrates incubated with human liver microsomes; tissue Eurofins ITEMG232; host or cells: human liver microsomes
T4 sequence (P10632 1-490): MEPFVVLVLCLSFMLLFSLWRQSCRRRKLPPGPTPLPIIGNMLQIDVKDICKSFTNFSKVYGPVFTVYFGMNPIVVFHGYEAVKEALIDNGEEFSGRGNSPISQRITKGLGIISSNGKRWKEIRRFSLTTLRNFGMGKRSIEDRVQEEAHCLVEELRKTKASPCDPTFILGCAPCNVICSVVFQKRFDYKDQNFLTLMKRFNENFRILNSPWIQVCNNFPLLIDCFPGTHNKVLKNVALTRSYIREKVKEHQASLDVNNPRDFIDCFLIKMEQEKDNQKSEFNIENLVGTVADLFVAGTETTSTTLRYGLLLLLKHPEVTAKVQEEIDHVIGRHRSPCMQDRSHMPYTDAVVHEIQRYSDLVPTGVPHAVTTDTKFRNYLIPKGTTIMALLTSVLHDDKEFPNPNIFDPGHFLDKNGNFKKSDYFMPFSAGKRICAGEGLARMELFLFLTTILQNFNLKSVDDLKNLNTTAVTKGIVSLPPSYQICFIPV
Procedure: as §1, §2

CYP2D6 = target: T5, CYP2D6 (Homo sapiens, UniProt P10635); assay: as above; format: in vitro ADME; settings: substrate dextromethorphan; for CYP2D6 Inh %: 10 μM; for inhibition at 10 µM: probe dextromethorphan, read-out: CYP2D6 Inh %
T5 construct: tissue Eurofins ITEMG232; host or cells: human liver microsomes
T5 sequence (P10635 whole entry): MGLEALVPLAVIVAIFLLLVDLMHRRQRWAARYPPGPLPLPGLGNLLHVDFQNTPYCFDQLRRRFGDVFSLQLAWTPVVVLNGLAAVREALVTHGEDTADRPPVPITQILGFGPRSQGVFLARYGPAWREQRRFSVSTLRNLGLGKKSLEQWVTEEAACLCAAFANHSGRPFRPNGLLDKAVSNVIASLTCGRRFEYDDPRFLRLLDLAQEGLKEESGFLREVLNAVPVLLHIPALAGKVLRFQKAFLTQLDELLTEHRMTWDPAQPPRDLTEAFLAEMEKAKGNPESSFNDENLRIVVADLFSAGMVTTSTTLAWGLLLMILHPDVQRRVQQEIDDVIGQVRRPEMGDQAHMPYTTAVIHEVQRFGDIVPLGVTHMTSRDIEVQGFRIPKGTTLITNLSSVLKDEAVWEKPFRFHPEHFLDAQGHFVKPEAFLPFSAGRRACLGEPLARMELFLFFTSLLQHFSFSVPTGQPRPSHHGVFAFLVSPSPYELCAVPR
Procedure: as §1, §2

[1] = target: T6, human recombinant AT2 receptor (Homo sapiens, UniProt P50052); assay: Binding to AT2 receptor, radiometric scintillation assay (Eurofins protocol ITEM26 and ITEM24); settings: read-out: AT2 IC50, ligand 125I CGP 42112A, 1, 10, 100 and 1000 nM, 2-4 h at 37° C.
T6 sequence (P50052 1-363): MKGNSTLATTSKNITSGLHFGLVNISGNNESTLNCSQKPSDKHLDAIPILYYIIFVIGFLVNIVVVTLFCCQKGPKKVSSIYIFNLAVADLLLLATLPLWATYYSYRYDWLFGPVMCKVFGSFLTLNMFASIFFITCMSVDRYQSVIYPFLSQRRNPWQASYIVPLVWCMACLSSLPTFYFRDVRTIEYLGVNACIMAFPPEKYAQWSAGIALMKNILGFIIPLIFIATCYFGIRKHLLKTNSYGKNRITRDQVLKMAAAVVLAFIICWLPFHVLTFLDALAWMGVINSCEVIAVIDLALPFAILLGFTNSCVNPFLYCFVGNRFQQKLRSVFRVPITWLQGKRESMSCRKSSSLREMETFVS
Procedure: Compounds were evaluated for binding to the human recombinant AT2 and AT1 receptor according to Eurofins protocol ITEM26 and ITEM24 using a radiometric scintillation assay.

CYP3A4 = CYP3A4 (Homo sapiens, UniProt P08684); assay: CYP inhibition in human liver microsomes (Eurofins protocol ITEMG232), midazolam substrate; format: in vitro ADME; set-up: using isoform-specific substrates incubated with human liver microsomes; tissue Eurofins ITEMG232; host or cells: human liver microsomes; settings: for CYP3A4 midazolam Inh %: 10 μM; for inhibition at 10 µM: probe midazolam, read-out: CYP3A4 midazolam Inh %
Chain of CYP3A4 (P08684 whole entry, canonical isoform): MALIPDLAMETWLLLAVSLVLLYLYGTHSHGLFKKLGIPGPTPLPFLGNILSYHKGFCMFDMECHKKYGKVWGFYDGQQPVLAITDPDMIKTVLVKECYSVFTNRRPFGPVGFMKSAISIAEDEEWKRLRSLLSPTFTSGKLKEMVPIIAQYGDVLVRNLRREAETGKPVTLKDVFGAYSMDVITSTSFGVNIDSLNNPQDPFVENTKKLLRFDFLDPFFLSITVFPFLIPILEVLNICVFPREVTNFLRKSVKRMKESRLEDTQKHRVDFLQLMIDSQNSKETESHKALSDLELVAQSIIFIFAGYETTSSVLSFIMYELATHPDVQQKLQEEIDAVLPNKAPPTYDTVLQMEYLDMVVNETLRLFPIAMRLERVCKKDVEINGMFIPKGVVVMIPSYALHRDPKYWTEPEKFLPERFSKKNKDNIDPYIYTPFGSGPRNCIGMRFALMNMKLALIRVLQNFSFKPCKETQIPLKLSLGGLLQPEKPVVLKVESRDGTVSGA
Procedure: as §1, §2

Row | Structure (SMILES) | CYP1A Inh % (CYP1A) [%] | CYP2B6 Inh % (CYP2B6) [%] | CYP2C19 Inh % (CYP2C19) [%] | CYP2C8 Inh % (CYP2C8) [%] | CYP2D6 Inh % (CYP2D6) [%] | IC50 [1] [nM] | CYP3A4 midazolam Inh % (CYP3A4) [%] | inhibition at 10 µM (CYP1A) [%] | inhibition at 10 µM (CYP2B6) [%] | inhibition at 10 µM (CYP2C19) [%] | inhibition at 10 µM (CYP2C8) [%] | inhibition at 10 µM (CYP2D6) [%] | inhibition at 10 µM (CYP3A4) [%]
1 | CCOC(=O)NS(=O)(=O)c1sc(CC(C)C)cc1-c1ccc(Cn2ccnc2C)c(F)c1.O=C(O)C(F)(F)F [Example 1, Ethyl (3-(3-fluoro-4-((2-methyl-1H-imidazol-1-yl)methyl)phenyl)-5-isobutylthiophen-2-yl)sulfonvicarbamate trifluoroacetic acid] | 37 | 39 | 37 | 37 | 45 | 2.4 | −42 |  |  |  |  |  | 
2 | COCCOC(=O)NS(=O)(=O)c1sc(CC(C)C)cc1-c1ccc(Cn2ccnc2C)c(F)c1.O=C(O)C(F)(F)F [Example 3] | −13 | 36 | 39 | 26 | 44 | 3.5 | −52 |  |  |  |  |  | 
3 | CCc1nccn1Cc1ccc(-c2cc(CC(C)C)sc2S(=O)(=O)NC(=O)OCc2ccc(F)cc2)cc1F.O=C(O)C(F)(F)F [Example 6, 4-Fluorobenzyl (3-(4((2-ethyl-1H-imidazol-1-yl)methyl)-3-fluorophenyl)-5-isobutylthio-phen-2-yl)sulfonylcarbamate trifluoroacetic acid] | 35 | 30 | 52 | 55 | 50 | 1.8 | −39 |  |  |  |  |  | 
4 | CCOC(=O)NS(=O)(=O)c1sc(CC(C)C)cc1-c1ccc(Cn2ccnc2CC)c(F)c1.O=C(O)C(F)(F)F [Example 7, Ethyl (3-(4-((2-ethyl-1H-imidazol-1-yl)methyl)-3-fluorophenyl)-5-isobutylthiophen-2-30 yl)sulfonylcarbamate trifluoroacetic acid] | 21 | 26 | 41 | 66 | 39 | 1.8 | −31 |  |  |  |  |  | 
5 | CCOC(=O)NS(=O)(=O)c1sc(CC(C)C)cc1-c1ccc(Cn2ccnc2C(C)C)c(F)c1.O=C(O)C(F)(F)F [Example 8, Ethyl (3-(3-fluoro-4-((2-isopropyl-1H-imidazol-1-yl)methyl)phenyl)-5-isobutylthio-phen-2-yl)sulfonylcarbamate trifluoroacetic acid] | −13 | 36 | 39 | 26 | 44 | 3.5 | −52 |  |  |  |  |  | 
6 | Cc1nccn1Cc1c(F)cc(-c2cc(CC(C)C)sc2S(=O)(=O)NC(=O)OCCO)cc1F [Example 18, 2-Hydroxyethyl (3-(3,5-difluoro-4-((2-methyl-1H-imidazol-1-yl)methyl)phenv1)-5-isobutylthiophen-2-yl)sulfonylcarbamate] | 15.2 | 33.3 | 5.9 | 56.1 | 48.8 | 0.87 | −35.6 |  |  |  |  |  | 
7 | Cc1nccn1Cc1ccc(-c2cc(CC(C)C)sc2S(=O)(=O)NC(=O)OCCOC(=O)C(C)(C)C)cc1F [Example 19, 2-((((3-(3-Fluoro-4-((2-methyl-1H-imidazol-1-yl)methyl)phenyl)-5-isobutylthiophen-2-yl)sulfonyl)carbamoyl)oxy)ethyl pivalate] |  |  |  |  |  |  |  | 84.3 | 26.9 | 54.1 | 83.2 | 31.3 | 43.4
8 | CC(C)Cc1cc(-c2ccc(Cn3ccnc3C(C)(C)C)c(F)c2)c(S(=O)(=O)NC(=O)c2ccccn2)s1 [Example 27, N-((3-(4-((2-(Tert-Butyl)-1H-imidazol-1-yl)methyl)-3-fluorophenyl)-5-isobutylthio-phen-2-yl)sulfonyl)picolinamide] |  |  |  |  |  |  |  | 29 | 25 | 43.2 | 65.7 | 20.1 | 7.3
